In patent US20090247558A1, “USE OF THE CRH (CORTICOTROPIN RELEASING HORMONE) - UCN (UROCORTIN) SYSTEM IN THE TREATMENT OF INFLAMMATORY DISEASES” (priority 2002, published 2009):
Positions count from the first letter of the chain named. Entries after “also recorded” stand apart in the source; their conditions may differ. No end group written: not given here.

What was measured:
[1] = target: T1, CRH-R1 receptor (Mus musculus, UniProt P35347); details: cited from earlier work
T1 construct: monocyte/macrophage cells which express both the CRH-R1 and the CRH-R2 receptors on the surface; endogenous in cells; host or cells: macrophages in vitro (RAW 264.7 or Balb/c peritoneal macrophages, inferred)
T1 sequence (P35347 24-415): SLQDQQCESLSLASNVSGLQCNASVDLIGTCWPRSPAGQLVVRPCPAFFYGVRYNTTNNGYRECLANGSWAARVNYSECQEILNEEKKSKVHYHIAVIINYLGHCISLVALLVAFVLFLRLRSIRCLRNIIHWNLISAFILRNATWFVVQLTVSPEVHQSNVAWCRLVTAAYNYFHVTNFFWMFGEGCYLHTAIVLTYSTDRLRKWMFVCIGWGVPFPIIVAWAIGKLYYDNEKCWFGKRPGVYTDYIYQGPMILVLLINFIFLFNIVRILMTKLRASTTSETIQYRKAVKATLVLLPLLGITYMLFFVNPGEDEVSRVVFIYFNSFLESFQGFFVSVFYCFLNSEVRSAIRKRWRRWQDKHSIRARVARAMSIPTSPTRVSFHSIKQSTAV

[2] = test system: LPS-induced endotoxin shock in Balb/c mice
Experimental: Male 20- to 25-g Balb/c mice 8 to 10 weeks old were used. They were kept in our animal facility for at least one week prior to each experiment to allow adjustment and confirmation of their health. Each animal received rodent laboratory chow and water ad libitum. The CRH-R1 antagonist used was provided by the Pediatric and Reproductive Endocrinology Branch, NICHD, NIH, Bethesda, Md. Antalarmin was initially dissolved into 100% ethanol at a concentration of 200 mg/ml and then diluted in a 1:1 ratio with Cremaphor EL (Sigma), and finally brought to a working stock of 2 mg/ml antalarmin in 10% ethanol and 10% Cremaphor EL in sterile water. E coli lipopolysaccharide (serotype 0111:B4, cat. # L2630) and Salmonella enteritidis lipopolysaccharide (cat. # L6011) were purchased from Sigma. The antibodies and the reagents for the TNF-α, IL-1β and IL-6 determination were purchased from R&D (NE, USA).
For the determination of the LD50 groups composed of five mice were injected intraperitoneally (i.p) with either 200, 400, 600, 700 or 1000 μg/mouse of Salmonella-derived LPS (Sigma) dissolved in PBS at a concentration of 10 mg/ml. Survival of animals was monitored for a period of seven days. The same protocol was used for E. coli-derived LPS (O111:B4). To determine the effect of antalarmin in the survival of mice injected with LPS, 40 mice were divided in four different groups; the first group received antalarmin at a concentration of 20 mg/kg of body weight; the second received antalarmin at 20 mg/kg of body weight and LPS at a concentration of 0.7 mg per 25 g of body weight; the third group received LPS and the antalarmin diluent while the fourth group received the antalarmin diluent alone.

[3] = test system: LPS-induced endotoxin shock in Balb/c mice; assay: Serum proinflammatory cytokines (ELISA) in LPS-induced endotoxin shock; assay type: in vivo; details: for TNF-α level / IL-6 level / IL-1β level: antalarmin pre-treated vs LPS alone; for IL-6 level / IL-1β level: 4 hours after LPS; for IL-1β level: p=0.013
Experimental: (§1) Each time point and treatment group was composed of five animals per experiment. Sera were collected and frozen until used for cytokine determination by ELISA according to manufacturer (R&D, NE, USA). Similarly, cell culture supernatants were collected 24 hours following stimulation and stored at −70° C. until analyzed. Corticosterone was measured by RIA in serum collected 1 hour following LPS administration. Five animals per treatment were used. Sera were frozen at −70° C. and analyzed as recommended by the manufacturer (ICN, USA).

[4] = target: T2, CRH-R1 receptor (Rattus norvegicus, UniProt P35353); details: PC12 rat pheochromocytoma cells; cited from earlier work
T2 construct: endogenous in cells; host or cells: PC12 rat pheochromocytoma cells
T2 sequence (P35353 24-415): T1 sequence (P35347 24-415) with Q6R, S9N, A13T, I95V, Y229H

[5] = test system: Balb/c mice; assay: Determination of the LD50 of LPS i.p.; assay type: in vivo
[6] = target: T3, CRH-R2 receptor (Mus musculus, UniProt Q60748); details: cited from earlier work
T3 construct: monocyte/macrophage cells which express both the CRH-R1 and the CRH-R2 receptors on the surface; endogenous in cells; host or cells: macrophages

[7] = test system: RAW264.7 cells; assay: LPS-induced cytokine secretion from RAW264.7 macrophages (ELISA); assay type: cell-based, mouse
Experimental: (§2) RAW 264.7 cells were cultured in Dulbecco's Modified Eagle Medium supplemented with 10% fetal calf serum (FCS), 10 mM L-glutamine, 100 U/ml penicillin, 0.1 mg/ml streptomycin (all purchased by Gibco), at 5% CO2 and 37° C. Cells were plated in 25 cm^2 flasks one day prior to stimulation. Cells were then stimulated with 10 μg/ml Ecoli-derived LPS (serotype 0111:B4, cat. # L2630, Sigma) and recombinant CRH (Sigma) at a concentration of 10^−8 M.
as §1, with “Serum from trunk blood was collected as follows: a) for the determination of TNF-α 1 hour after LPS administration and b) at 4 hours for the determination of IL-1β or IL-6 levels. Each” for “Each”

[8] = test system: RAW264.7 cells; assay: Cytokine mRNA in RAW264.7 cells, semi-quantitative RT-PCR; assay type: cell-based, mouse
Experimental: as §2
(§3) Total cellular RNA was isolated using Trizol reagent (Gibco). Following reverse transcription (Thermoscript RT, Invitrogen), 1 μl of the cDNA product was amplified by PCR at 33 cycles. […] Intensity of the bands was quantified using TINAscan software.
(§4) Primers for actin were: sense, 5′-TCAGAAGAACTCCTATGTGG-3′; antisense, 5′-TCTCTTTGATGTCACGCACG-3′, giving a 499 bp product; for Tnf-α were: 5′-CACGCTCTTCTGTCTACTGAACTTCG-3′; 5′-GGCTGGGTAGAGAATGGATGAACACC-3′, giving a 590 bp product; for IL-1β were 5′-GGATGAGGACATGAGCACCT-3′ and 5′-TCCATTGAGGTGGAGAGCTT-3′, resulting in a 196 bp product; for IL-6,5′-TGAAGTTCCTCTCTGCAAGAGACT-3′,5′-TGA GGA AGG CCG TGG TTG T-3′, giving a 200 bp product. […] The quantitation was performed using the “TI-NAscan” software. […]

[9] = test system: thioglycollate-elicited peritoneal macrophages; assay: Cytokine mRNA in thioglycollate-elicited peritoneal macrophages, RT-PCR; assay type: cell-based, Balb/c mice
Experimental: A 4% thioglycollate solution was prepared and autoclaved 2 days prior to administration. 1.5 ml of the thioglycollate solution was injected intraperitoneally in BALB/c mice and peritoneal macrophages were isolated by lavage of the peritoneal cavity with Dulbecco's Modified Medium. Cells were then cultured in DMEM supplemented with 10% FCS, 10 mM L-glutamine, 100 U/ml penicillin, 0.1 mg/ml streptomycin (Gibco). Cells were plated at a concentration of 5×10^5/ml and maintained in culture 24 hours prior to stimulation.
as §3, §4

[10] = CRH 1×10^−8 M plus LPS 10 μg/ml, 24 hours, vs LPS alone, p=0.04

T3 sequence (Q60748 whole entry): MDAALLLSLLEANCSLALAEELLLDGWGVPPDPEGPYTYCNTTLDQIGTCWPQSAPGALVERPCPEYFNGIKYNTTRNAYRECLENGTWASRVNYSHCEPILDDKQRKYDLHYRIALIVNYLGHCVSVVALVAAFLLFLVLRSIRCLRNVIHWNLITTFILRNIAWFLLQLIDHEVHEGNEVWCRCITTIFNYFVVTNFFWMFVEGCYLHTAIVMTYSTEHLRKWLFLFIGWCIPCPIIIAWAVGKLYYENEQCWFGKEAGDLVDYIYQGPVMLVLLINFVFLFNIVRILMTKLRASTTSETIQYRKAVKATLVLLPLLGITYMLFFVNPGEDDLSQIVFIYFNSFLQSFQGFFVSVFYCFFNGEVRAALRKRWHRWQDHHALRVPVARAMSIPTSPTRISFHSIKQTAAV

## CCCCN(CC)c1nc(C)nc2c1c(C)c(C)n2-c1c(C)cc(C)cc1C [antalarmin]
[1]; macrophages in vitro, LPS
  effect on the enhancing effect of CRH: blocked completely
[2]; E coli-derived LPS 0.7 mg/25 g, antalarmin pre-treatment, all animals with LPS alone had died
  mice still alive at 18 h: 72%
[2]; E coli-derived LPS, in the presence of antalarmin, p=0.002, observed 7 days
  overall survival: significantly improved
[2]; Salmonella enteritidis-derived LPS 0.7 mg/25 g i.p., antalarmin 20 mg/kg IP 1.5 h prior to LPS, LPS alone 60%
  animals that had died at 18 hours: 20%
[3]; 1 h after LPS, p=0.001
  TNF-α level: significantly reduced
[3]; 2 hours after LPS injection, p<0.001
  TNF-α level: significantly lower
[3]; p<0.001
  IL-6 level: significantly lower
[3]; p<0.001, listed as Antalarmin
  IL-6 level: significantly reduced
[3]
  IL-1β level: significantly lower
[3]; listed as Antalarmin
  IL-1β level: significantly reduced
[3]; 6 hours after LPS, p<0.001, value describes LPS alone relative to LPS plus antalarmin
  IL-6 level of LPS treated animals compared with LPS plus antalarmin treated mice: significantly higher
[3]; 6 hours after LPS, p<0.01, value describes LPS alone relative to LPS plus antalarmin
  IL-1β level of LPS treated animals compared with LPS plus antalarmin treated mice: significantly higher
[4]
  effect on CRH-mediated effects (p38, Fas ligand, apoptosis): blocks all

## Lipopolysaccharide [LPS]
[5]; LPS 0.2 mg/25 g i.p.
  animals survived: One hundred
[5]; LPS 0.4 mg/25 g i.p.
  animals survived: 80%
[5]; LPS 0.6 mg/kg i.p. (so in the source)
  animals survived: 40%
[5]; LPS 0.7 mg/25 g i.p.
  animals survived: none
[5]; LPS 1 mg/25 g i.p.
  animals survived: none
[5]; LPS i.p., mice
  LD100: ≥ 0.7 mg per 25 g of body weight
[5]; LPS i.p., mice, survival monitored seven days
  LD50: 0.5 mg per 25 g body weight

## Urocortin II (IVLSLDVPIGLLQILLEQARARAAREQATTNARILARVGHC; ends and bridges not checked; UniProt Q96RP3 72-112, looked up) [CRH-related peptide that induces macrophage apoptosis via the CRH-R2 receptor]
[6]
  apoptosis on macrophages: induce apoptosis

## corticotropin-releasing hormone [CRH]
[7]; CRH 1×10^−8 M plus LPS 10 μg/ml, 24 hours, vs LPS alone, p=0.01
  LPS-induced IL-1β secretion: potentiates; also recorded: significantly augmented
[7]; [10]
  LPS-induced IL-6 secretion: potentiates; also recorded: significantly augmented
  LPS-induced TNF-α secretion: significantly higher; also recorded: significantly augmented
[7]; CRH 1×10^−8 M without LPS
  cytokine secretion, CRH alone: only a minimal effect
[1]; in vitro
  inflammatory response to lipopolysaccharide (LPS) of macrophages: enhances
[8]; CRH plus LPS, densitometry normalized versus actin
  LPS-induced cytokine transcription (IL-1β, TNF-α, IL-6 mRNA): further potentiates; also recorded: strongly augmented
[8]; CRH without LPS
  transcription of IL-1β, TNF-α, or IL-6, CRH alone: induces expression; also recorded: minimal transcription
[9]; CRH plus LPS
  LPS-induced pro-inflammatory cytokine expression: augments; also recorded: significantly augmented
[9]; CRH without LPS
  TNF-α, IL-1β or IL-6 transcription, CRH alone: unable to induce
[4]
  Fas ligand production: stimulates
  apoptosis: induces apoptosis
  p38 mitogen-activated protein kinase: activates

## sauvagine-30
[6]
  effect on Urocortin / Urocortin II induced macrophage apoptosis: completely abolishes
